{"source": "patent US4713453A", "about": "“Oxabicycloheptane derivatives” (Suntori Limited, priority 1986, dated 1987)", "key": {"[1]": {"test_system": "rabbit platelet rich plasma", "assay": "Effect on in vitro platelet aggregation", "type": "cell-based, rabbit (male Japanese white)", "conditions": "Oryctolagus cuniculus, aggregator AA, read-out: Anti-platelet aggregation IC50, AA"}, "[2]": {"test_system": "rabbit platelet rich plasma", "assay": "Effect on in vitro platelet aggregation", "type": "cell-based, rabbit (male Japanese white)", "conditions": "for IC50: Oryctolagus cuniculus, Platelet", "method": "5. Effect on in vitro platelet aggregation Arterial blood was drawn from the ear artery of male Japanese white rabbits. Platelet rich plasma (PRP) was prepared by centrifugation of 9 ml of blood mixed with 1 ml of 3.8% sodium citrate as anticoagulant. Platelet aggregation was measured optically according to Born's method. ADP (10 μM), collagen (37.5 μg/ml), platelet activating factor (PAF, 0.11 nM) and calcium ionophore A 23187 (1 μg/ml) were used as platelet aggregators. Test compounds were added 1 minute prior to the addition of aggregating agents."}, "[3]": {"test_system": "ECS-induced amnesia in mice", "assay": "Effect on electroconvulsive shock (ECS)-induced amnesia in mice, step-through passive avoidance", "type": "in vivo, mouse (male ddY)", "conditions": "6.25 and 12.5 mg/kg, intraperitoneal, 30 minutes before retention test", "method": "(§1) 6b. Effects on electroconvulsive shock (ECS)- and cycloheximide-induced amnesia in mice\n(§2) Male, ddY strain mice, weighing 25 to 35 g, were used. Memory retention deficit induced by ECS and cycloheximide was evaluated by two-compartment step-through passive avoidance task using a light-dark apparatus. Passive avoidance training test began by placing the mouse into the light compartment. When the mouse moved completely into the dark compartment, a shock of 0.6 mA was applied from the grid floor. Amnesia was induced in the following two ways. In the first one, a single ECS (current 50 mA, frequency 50 Hz, pulse width 1 msec, shock duration 1 msec) was applied via a pair of electrodes attached to the head immediately after receiving the foot shock, and the mouse was returned to its home cage. Test compounds were administered intraperitoneally 30 minutes before a retention test. In the second one, cycloheximide (40 mg/kg) was administered subcutaneously 30 minutes before the training and the compounds in question were administered intraperitoneally immediately after the training. A retention test was given 24 hours later. The test procedures proceeded in a manner similar to the training one, and time to entry into the dark compartment was measured for 300 seconds."}, "Male ddY mice [4]": {"test_system": "Male ddY mice", "assay": "Anti-cerebroischemic effect (brain protection after ischemia by decapitation): gasping time", "type": "in vivo, mouse (male ddY)", "conditions": "intraperitoneal, 30 min before decapitation", "method": "1. Anti-cerebroischemic effect (i.e., brain protection after ischemia by decapitation)\nMale ddY mice weighing 22-30 g were used in groups each consisting of 6 animals. Test compounds were administered intraperitoneally to the mice which were decapitated 30 minutes after the administration. The gasping time, or the duration of time between the onset of panting after decapitation and its cessation, was measured, and this was compared with the gasping time for a control group which were given only a liquid vehicle."}, "Male ddY mice [5]": {"test_system": "Male ddY mice", "assay": "Anti-hypoxia effect (brain protection in low-oxygen state after evacuation): survival time", "type": "in vivo, mouse (male ddY)", "conditions": "intraperitoneal, 180 mmHg", "method": "2. Anti-hypoxia effect (i.e., […] protection in low-oxygen state after evacuation)\nMale ddY m8mice weighing 22-30 g were used in groups each consisting of 7-10 animals. The mice were placed in a desiccator (capacity: ca. 1,000 ml) which was evacuated with a vacuum pump to an internal pressure of 180 mmHg after intraperitoneal administration of test compounds. The survival time, or the duration of time between the start of evacuation and the cessation of breathing, was measured, and this was compared with the value for a vehicle group. Any survival time longer than a period of 15 minutes after application of a hypoxia load was counted as 15 minutes."}, "[6]": {"test_system": "scopolamine amnesia mouse", "assay": "Anti-amnesia effect (scopolamine-induced retrograde amnesia), step-through passive avoidance", "type": "in vivo, mouse (male ddY)", "conditions": "ip, 24 h, significant prolongation of step-through latency, intraperitoneal, scopolamine 0.5 mg/kg s.c., read-out: Minimum effective amount", "method": "6a. Anti-amnesia effect (i.e., capability of preventing scopolamine-inducedretrograde amnesia)\nFive-week old male ddY weighing 25-30 g were used in groups each consisting of 10 animals. Memory retention deficit induced by scopolamine was evaluated by two-compartment step-through passive avoidance task. […] The floor of the dark compartment was provided with a current-conducting grid.\nThe experimental method was as follows. A scopolamine amnesia mouse that had been given subcutaneous injection of 0.5 mg/kg of an aqueous solution of scopolamine borate 20 minutes before was placed in the light compartment and when its forefeet touched the grid floor of the dark compartment, a current of 0.6 mA was applied to give a foot shock to the mouse (acquired conation). Immediately thereafter, a selected test compound or a control (physiological saline solution) was administered intraperitoneally. Twenty-four hours later, the mouse was replaced in the light compartment and the step-through latency, or the time required for the mouse to move to the dark compartment, was measured for a period of up to 300 seconds (test conation). The minimum effective amount of the test compound that provided a significant prolongation of the step-through latency over the control was determined."}, "[7]": {"test_system": "cycloheximide-induced amnesia in mice", "assay": "Effect on cycloheximide-induced amnesia in mice, step-through passive avoidance", "type": "in vivo, mouse (male ddY)", "conditions": "6.25 and 50 mg/kg, intraperitoneal, immediately after training; cycloheximide 40 mg/kg s.c.", "method": "as §1, §2"}, "Male ICR mice": {"test_system": "Male ICR mice", "assay": "Anti-depression effect (forced swimming, revolutions of water wheel)", "type": "in vivo, mouse (male ICR)", "conditions": "50 mg/kg, intraperitoneal", "description": "Male ICR mice weighing 25-30 g were used in groups each consisting of 6 or 7 animals. […] First, the mouse was subjected to force swimming for two days on a 15-minutes-a-day basis; starting on the third day, the mouse that had received intraperitoneal injection of a test compound one hour before was subjected to forced swimming for 3 days on a 15-minutes-a-day basis."}, "vertebral artery": {"test_system": "vertebral artery", "assay": "Effect on blood flow in the vertebral artery, blood pressure and heart rate in anesthetized dogs", "type": "in vivo, dog (mongrel)", "conditions": "femoral vein", "method": "4. Effect on blood flow in the vertebral artery, blood pressure and heart rate in anesthetized dogs\nMongrel dogs of either sex, weighing 6.8-9.4 kg, were used. The animals were anesthetized with an intravenous injection, at first, of 30 mg/kg of sodium thiopental and thereafter, of a combination of urethane 400 mg/kg and α-chloralose 60 mg/kg. Under artificial ventilation (20 ml/kg/stroke, 20 strokes/min), blood flow in the vertebral artery and blood pressure were measured with the aid of an extracorporeal electromagnetic flow probe placed on the artery and a pressure transducer, respectively. Vertebral vascular resistance was recorded with an electronic divider and heart rate was measured with a heart rate counter triggered by blood pressure pulses. All of these parameters were recorded on a polygraph continuously. When these parameters became stable, test compounds were injected into the femoral vein."}, "[8]": {"conditions": "aggregator ADP (10 μM), read-out: Anti-platelet aggregation IC50, ADP"}, "[9]": {"conditions": "aggregator PAF (0.11 nM), read-out: Anti-platelet aggregation IC50, PAF"}, "[10]": {"conditions": "aggregator calcium ionophore A 23187 (1 μg/ml), read-out: Anti-platelet aggregation IC50, A 23187"}, "[11]": {"conditions": "aggregator collagen (37.5 μg/ml), read-out: Anti-platelet aggregation IC50, Collagen"}}, "note": "“Also recorded” adds a separate entry of the source. Read-outs that look alike come from different tables or passages of the source.", "data": [{"smiles": "CN(C)CCCN1c2ccccc2Sc2ccc(Cl)cc21", "note": "[Chlorpromazine]", "values": [{"measurement": "IC50", "setting": "[1]", "result": 105, "unit": "µg/mL"}, {"measurement": "IC50", "setting": "[2]; [8]", "result": 57, "unit": "µg/mL"}, {"measurement": "IC50", "setting": "[2]; [9]", "result": 93, "unit": "µg/mL"}, {"measurement": "IC50", "setting": "[2]; [10]", "result": 125, "unit": "µg/mL"}, {"measurement": "IC50", "setting": "[2]; [11]", "result": 22, "unit": "µg/mL"}]}, {"smiles": "CN(C)CCCON=C1c2ccccc2OC2(c3ccccc3)CC12", "note": "(stereo not shown) [Example 2, 3,4-Benzo-5-(3-dimethylaminopropyl)oxyimino-1-phenyl-2-oxabicyclo[4.1.0]heptane]", "values": [{"measurement": "prevention of ECS-induced shortening of step-through latency", "setting": "[3]", "result": "significantly prevented the ECS-induced shortening of step-through latency"}, {"measurement": "IC50", "setting": "[1]", "result": 54, "unit": "µg/mL"}, {"measurement": "prolongation of gasping time", "setting": "Male ddY mice [4]; 12.5 mg/kg", "result": "significant prolongation of the gasping time"}, {"measurement": "prolongation of gasping time", "setting": "Male ddY mice [4]; 25 mg/kg", "result": "significantly prolonging the gasping time"}, {"measurement": "prolongation of survival time", "setting": "Male ddY mice [5]; 6.25 mg/kg or smaller", "result": "significant prolongation of the survival time"}, {"measurement": "prolongation of survival time", "setting": "Male ddY mice [5]; 12.5 mg/kg", "result": "significantly prolonging the survival time"}, {"measurement": "minimal effective dose", "setting": "[6]", "result": 3.2, "unit": "mg/kg"}, {"measurement": "IC50", "setting": "[2]; [8]", "result": 34.5, "unit": "µg/mL"}, {"measurement": "IC50", "setting": "[2]; [9]", "result": 20, "unit": "µg/mL"}, {"measurement": "IC50", "setting": "[2]; [10]", "result": 69, "unit": "µg/mL"}, {"measurement": "IC50", "setting": "[2]; [11]", "result": 4.1, "unit": "µg/mL"}, {"measurement": "platelet aggregation", "setting": "[2]; all the aggregators used, listed as Compound No. 2", "result": "decreases in platelet aggregation induced by all the aggregators used; also recorded: nonspecific inhibitory actions on in vitro platelet aggregation"}, {"measurement": "prolongation of step-through latency shortened by cycloheximide", "setting": "[7]", "result": "significantly prolonged the step-through latency"}, {"measurement": "anti-depression effect", "setting": "Male ICR mice", "result": "anti-depression effect"}, {"measurement": "rotation of the water wheel relative to control group", "setting": "Male ICR mice; one hour before forced swimming", "result": 1.8, "unit": "times"}, {"measurement": "blood pressure", "setting": "vertebral artery; 3.0 mg/kg", "result": "small decrease"}, {"measurement": "heart rate", "setting": "vertebral artery; 3.0 mg/kg", "result": "increase"}, {"measurement": "vertebral vascular resistance", "setting": "vertebral artery; 3.0 mg/kg", "result": "further decrease"}, {"measurement": "blood pressure", "setting": "vertebral artery; 0.3 and 1.0 mg/kg", "result": "almost no change"}, {"measurement": "heart rate", "setting": "vertebral artery; 0.3 and 1.0 mg/kg", "result": "almost no change"}, {"measurement": "vertebral vascular resistance", "setting": "vertebral artery; 0.3 and 1.0 mg/kg", "result": "dose-dependent decreases"}]}, {"smiles": "NCCCCCCNS(=O)(=O)c1cccc2c(Cl)cccc12", "note": "[Example W-7]", "values": [{"measurement": "IC50", "setting": "[1]", "result": 11, "unit": "µg/mL"}, {"measurement": "IC50", "setting": "[2]; [8]", "result": 18, "unit": "µg/mL"}, {"measurement": "IC50", "setting": "[2]; [9]", "result": 27, "unit": "µg/mL"}, {"measurement": "IC50", "setting": "[2]; [10]", "result": 19, "unit": "µg/mL"}, {"measurement": "IC50", "setting": "[2]; [11]", "result": 11, "unit": "µg/mL"}]}]}
